# Assay results reported in US6444683B2, “17-azolyl steroids useful as androgen synthesis inhibitors” (University of Maryland at Baltimore, priority 1997, dated 2002).
# Entries after “also recorded” stand apart in the source; their conditions may differ. Where two headings read alike, the source gives them in different places.
# Experiments:
# [1] = system: LNCaP human prostatic cancer cell; conditions: cited from earlier work
# Human P45017α = biological target: T1, Human P45017α (Homo sapiens, UniProt P05093); assay: Inhibition of human testicular microsomal P45017α (lyase activity, release of C3H3COOH from [21-3H3]-17α-hydroxypregnenolone); type: biochemical
# T1 construct: Human testicular microsomes were prepared from human testes; from tissue; host or cells: human testes (untreated prostatic cancer patients undergoing orchidectomy), microsomal fraction
# T1 sequence (P05093 1-508): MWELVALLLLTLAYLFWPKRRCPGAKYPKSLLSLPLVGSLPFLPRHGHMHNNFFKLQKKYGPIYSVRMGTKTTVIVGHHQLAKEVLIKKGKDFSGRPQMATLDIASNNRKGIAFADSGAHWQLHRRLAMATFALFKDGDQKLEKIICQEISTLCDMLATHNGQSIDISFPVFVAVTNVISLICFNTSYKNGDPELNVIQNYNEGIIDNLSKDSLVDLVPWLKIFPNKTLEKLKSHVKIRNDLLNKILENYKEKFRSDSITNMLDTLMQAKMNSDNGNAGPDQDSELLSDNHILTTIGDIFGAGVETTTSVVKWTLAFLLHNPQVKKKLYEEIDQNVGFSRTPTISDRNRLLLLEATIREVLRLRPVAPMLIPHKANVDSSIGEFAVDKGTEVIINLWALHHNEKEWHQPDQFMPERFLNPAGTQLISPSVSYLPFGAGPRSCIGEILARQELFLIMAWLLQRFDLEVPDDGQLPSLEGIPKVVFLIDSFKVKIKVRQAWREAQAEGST
# Procedure: (§1) The microsomes were stored at −70° C. until assayed. Just before use, the thawed microsomes were diluted with 0.1 M phosphate buffer (pH 7.4) to appropriate concentrations.
# (§2) This assay measures only the lyase activity of the P45017α enzyme.
# (§3) IC50 values for inhibitors were calculated from the linear regression line in the plot of logit of lyase activity versus log of inhibitor concentration. […] Each inhibitor was examined at three concentrations.
# [2] = system: LNCaP human prostatic cancer cell; assay: Androgen-stimulated growth of LNCaP human prostatic cancer cells in vitro
# Rat P45017α = biological target: T2, Rat P45017α (Rattus norvegicus, UniProt P11715); assay: Inhibition of rat testicular microsomal P45017α (lyase activity); type: biochemical
# T2 sequence (P11715 1-507): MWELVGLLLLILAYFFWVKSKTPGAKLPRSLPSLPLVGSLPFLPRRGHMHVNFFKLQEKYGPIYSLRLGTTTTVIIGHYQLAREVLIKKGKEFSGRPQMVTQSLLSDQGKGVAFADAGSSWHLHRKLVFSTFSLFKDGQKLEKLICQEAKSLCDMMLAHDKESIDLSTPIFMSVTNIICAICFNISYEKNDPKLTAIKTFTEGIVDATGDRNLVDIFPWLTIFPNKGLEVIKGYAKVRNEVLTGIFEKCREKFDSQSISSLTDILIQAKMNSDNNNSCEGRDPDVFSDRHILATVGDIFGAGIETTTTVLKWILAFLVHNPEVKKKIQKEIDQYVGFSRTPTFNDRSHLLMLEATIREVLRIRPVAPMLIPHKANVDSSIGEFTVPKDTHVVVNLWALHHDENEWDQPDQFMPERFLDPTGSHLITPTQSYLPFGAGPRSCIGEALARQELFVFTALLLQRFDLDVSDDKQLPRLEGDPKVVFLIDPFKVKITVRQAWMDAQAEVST
# Procedure: as §1, §2, §3
# [3] = biological target: T3, human prostate 5α-reductase (Homo sapiens, UniProt P31213); assay: Inhibition of human prostate 5α-reductase in BPH microsomes (conversion of [7-3H]-testosterone to DHT); type: biochemical
# T3 construct: The enzymatic reactions were initiated by addition of human BPH microsomes; from tissue; host or cells: human benign prostatic hyperplasia (BPH) tissue, microsomal fraction
# T3 sequence (P31213 1-254): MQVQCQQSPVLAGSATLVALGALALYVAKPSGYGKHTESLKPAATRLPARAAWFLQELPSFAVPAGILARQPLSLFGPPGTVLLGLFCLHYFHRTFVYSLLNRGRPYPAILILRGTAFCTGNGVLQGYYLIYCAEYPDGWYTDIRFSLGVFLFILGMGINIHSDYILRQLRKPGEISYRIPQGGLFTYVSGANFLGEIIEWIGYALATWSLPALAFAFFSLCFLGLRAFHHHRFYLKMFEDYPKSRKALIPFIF
# Procedure: […] The ethanol was evaporated to dryness under a gentle stream of air. […] The enzymatic reactions were initiated by addition of human BPH microsomes (about 180 μg of microsomal protein in 500 μl of phosphate buffer) in a total volume of 1.0 ml, and the incubations were performed for 10 min under oxygen in a shaking water bath at 37° C. The incubations were terminated by placing the sample tubes on ice and the addition of ether. Also, [^14C]-DHT (3000 dpm) and cold DHT (50 μg) were added to each tube as an internal standard and visualization marker, respectively. The steroids were extracted with ether and separated by TLC (chloroform:ether, 80:20) and visualized by exposure to iodine vapor. The extracts were analyzed for ^3H and ^14C using a liquid scintillation counter. The percentage conversion of [7-^3H]-testosterone to [^3H]-dihydrotestosterone was calculated and used to determine 5α-reductase activity.
# [4] = Stability at room temperature (TLC evidence); type: physicochemical
# Procedure: The method followed that described for Synthesis Example 14, but using 3β-acetoxy-17-(1H-tetrazol-1-yl)-16-formylandrosta-5,16-diene (Compound 23) (140 mg, 0.3415 mmol). Purification of the crude product by FCC (silica gel, pet. ether/EtOAc (3:1)) gave Compound 26 (45 mg, 34.5%); ^1H NMR (300 MHz, CDCl3): δ 1.08 (3H, s, 18-Me), 1.20 (3H, s, 19-Me), 2.04 (3H, s, 3β-OAc), 4.62 (1H, m, 3α-H), 5.42 (1H, d, J=4.6Hz, 6-H), 6.00 (1H, s, 16-H) and 8.93 (1H, s, 5′-H). […] (TLC evidence) and was used for the subsequent reaction without further characterization.
# [5] = small group of men with advanced prostatic cancer; cited from earlier work
# serum DHT levels = conditions: BPH patients; cited from earlier work
smiles,measurement,setting,value
"C[C@]12CCC(=O)C[C@@H]1CC[C@@H]1[C@@H]2CC[C@]2(C)[C@@H](O)CC[C@@H]12 [DHT, dihydrotestosterone]",Stimulation of proliferation of LNCaP cells compared to control,[1]; 30 pM DHT,5 fold
"C[C@]12CC[C@H](O)CC1=CC[C@@H]1[C@@H]2CC[C@]2(C)C(n3ccnn3)=CC[C@@H]12 [Compound 20, 3β-hydroxy-17-(1H-1,2,3-triazol-1-yl)androsta-5,16-diene]",IC50,Human P45017α,13 ± 1 nM
same,Ki,Human P45017α; Human P45017α Ki,1.4 nM
same,"Inhibition of human P45017α, in words",Human P45017α; human testicular microsomes,potent inhibitors; also recorded: powerful inhibitors
same,inhibition at 0.15 µM,"Human P45017α; inhibitor 150 nM, substrate 17α-hydroxypregnenolone 10 μM, mean of two determinations, read-out: % Inhibition of human P45017α",94%
same,inhibition at 5 µM,"[2]; Homo sapiens, LNCaP, read-out: Inhibition of DHT-induced growth of LNCaP cells",100%
same,inhibition at 2.5 µM,"[2]; Homo sapiens, LNCaP, read-out: Inhibition of testosterone-stimulated growth of LNCaP cells",100%
same,Toxicity to LNCaP cells,[2]; concentration range 0.5-5.0 μM,nor was toxic to the cells
same,Antiandrogenic effects,[2]; inferred from inhibition of androgen-stimulated LNCaP growth,strong antiandrogenic effects
same,IC50,Rat P45017α,10 ± 0.4 nM
same,IC50,"[3]; human BPH microsomes, mean ± SDM of at least two experiments, read-out: 5α-Reductase IC50",~10000 nM
"CC(=O)O[C@H]1CC[C@@]2(C)C(=CC[C@@H]3[C@@H]2CC[C@]2(C)C(n4cnnn4)=CC[C@@H]32)C1 [Compound 26, 3β-acetoxy-17-(1H-tetrazol-1-yl)androsta-5,16-diene]",Stability at room temp.,[4],not particularly stable at room temp.
C[C@]12CC[C@H]3[C@@H](CCC4=CC(=O)CC[C@@]43C)[C@@H]1CC[C@@H]2O [testosterone],Increase of growth of LNCaP cells compared to vehicle-treated cells,[1]; 0.1 nM testosterone,6 fold
"C[C@]12CCC(=O)C(O)=C1CC[C@@H]1[C@@H]2CC[C@]2(C)C(=O)CC[C@@H]12 [Compound 4-OHA, 4-hydroxyandrostene-3,17-dione]",Patients with subjective responses,[5],80%
"CC(C)(C)NC(=O)[C@H]1CC[C@H]2[C@@H]3CC[C@H]4NC(=O)C=C[C@]4(C)[C@H]3CC[C@]12C [Finasteride, reference compound]",Reduction of serum DHT levels,serum DHT levels,65-80%
same,IC50,[3],33 ± 2 nM
